Data reported in patent US4311685A, “Assay method and kit” (Burroughs Wellcome Co., priority 1979, dated 1982).

Test: in vitro
Settings: human, plasma

CC(C)NCC(O)COc1cccc2ccccc12 (racemic) [propranolol]
fraction unbound at 12 h, 0.07 µM: 0.117
